# Test results from ChEMBL document CHEMBL3352542, “Synthesis, biological evaluation and molecular modeling study of 2-(1,3,4-thiadiazolyl-thio and 4-methyl-thiazolyl-thio)-quinazolin-4-ones as a new class of DHFR inhibitors” (Bioorg Med Chem Lett, 2014).
# Activity calls are given as the source filed them. The rule behind the calls is not given here.
# Key:
# ACHN = assay: Growth inhibition of human ACHN cells at 10 uM after 48 hrs; format: functional; conditions: read-out: GI
# Candida albicans [1] = assay: Antimicrobial activity against Candida albicans assessed as inhibition zone at 200 ug/disk after 24 hrs by disc-diffusion method; format: functional
# MDA-MB-231 = assay: Growth inhibition of human MDA-MB-231 cells at 10 uM after 48 hrs; format: functional; conditions: MDA-MB-231, 48 h, read-out: GI
# [2] = Growth inhibition of human BT549 cells at 10 uM after 48 hrs; format: functional; conditions: BT-549, 48 h, read-out: GI
# NCI-H522 = assay: Growth inhibition of human NCI-H522 cells at 10 uM after 48 hrs; format: functional; conditions: NCI-H522, 48 h, read-out: GI
# Dihydrofolate reductase = molecular target: T1, Dihydrofolate reductase (Bos taurus, UniProt P00376); assay: Inhibition of bovine liver DHFR
# T1 sequence (P00376 whole entry): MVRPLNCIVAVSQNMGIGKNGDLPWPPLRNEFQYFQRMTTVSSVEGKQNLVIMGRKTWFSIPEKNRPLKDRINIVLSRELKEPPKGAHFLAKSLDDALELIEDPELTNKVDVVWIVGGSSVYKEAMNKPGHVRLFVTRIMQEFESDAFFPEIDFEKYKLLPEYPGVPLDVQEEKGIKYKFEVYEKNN
# SNB-19 = assay: Growth inhibition of human SNB19 cells at 10 uM after 48 hrs; format: functional; conditions: SNB-19, 48 h, read-out: GI
# CCRF-CEM = assay: Growth inhibition of human CCRF-CEM cells at 10 uM after 48 hrs; format: functional; conditions: read-out: GI
# [3] = Growth inhibition of human HOP92 cells at 10 uM after 48 hrs; format: functional; conditions: HOP-92, 48 h, read-out: GI
# A549 = assay: Growth inhibition of human A549 cells at 10 uM after 48 hrs; format: functional; conditions: A549, 48 h, read-out: GI
# [4] = Growth inhibition of human UACC257 cells at 10 uM after 48 hrs; format: functional; conditions: UACC-257, 48 h, read-out: GI
# [5] = Growth inhibition of human UACC62 cells at 10 uM after 48 hrs; format: functional; conditions: UACC-62, 48 h, read-out: GI
# [6] = Growth inhibition of human HCT15 cells at 10 uM after 48 hrs; format: functional; conditions: HCT-15, 48 h, read-out: GI
# M14 = assay: Growth inhibition of human M14 cells at 10 uM after 48 hrs; format: functional; conditions: M14, 48 h, read-out: GI
# [7] = Growth inhibition of human RPMI8226 cells at 10 uM after 48 hrs; format: functional; conditions: RPMI-8226, 48 h, read-out: GI
# Bacillus subtilis [8] = assay: Antimicrobial activity against Bacillus subtilis assessed as inhibition zone at 200 ug/disk after 24 hrs by disc-diffusion method; format: functional
# [9] = Growth inhibition of human OVCAR8 cells at 10 uM after 48 hrs; format: functional; conditions: OVCAR-8, 48 h, read-out: GI
# [10] = Growth inhibition of human NCI-ADR-RES cells at 10 uM after 48 hrs; format: functional; conditions: read-out: GI
# HT-29 = assay: Growth inhibition of human HT-29 cells at 10 uM after 48 hrs; format: functional; conditions: HT-29, 48 h, read-out: GI
# [11] = Growth inhibition of human SF295 cells at 10 uM after 48 hrs; format: functional; conditions: SF-295, 48 h, read-out: GI
# KM12 = assay: Growth inhibition of human KM12 cells at 10 uM after 48 hrs; format: functional; conditions: KM12, 48 h, read-out: GI
# [12] = Growth inhibition of human MOLT4 cells at 10 uM after 48 hrs; format: functional; conditions: MOLT-4, 48 h, read-out: GI
# Pseudomonas aeruginosa [13] = assay: Antimicrobial activity against Pseudomonas aeruginosa assessed as inhibition zone at 200 ug/disk after 24 hrs by disc-diffusion method; format: functional
# [14] = Growth inhibition of human UO31 cells at 10 uM after 48 hrs; format: functional; conditions: UO-31, 48 h, read-out: GI
# NCI-H460 = assay: Growth inhibition of human NCI-H460 cells at 10 uM after 48 hrs; format: functional; conditions: NCI-H460, 48 h, read-out: GI
# 786-0 = assay: Growth inhibition of human 786-0 cells at 10 uM after 48 hrs; format: functional; conditions: 786-0, 48 h, read-out: GI
# SN12C = assay: Growth inhibition of human SN12C cells at 10 uM after 48 hrs; format: functional; conditions: read-out: GI
# T47D = assay: Growth inhibition of human T47D cells at 10 uM after 48 hrs; format: functional; conditions: read-out: GI
# U-251 = assay: Growth inhibition of human U251 cells at 10 uM after 48 hrs; format: functional; conditions: U-251, 48 h, read-out: GI
# HL-60(TB) = assay: Growth inhibition of human HL-60(TB) cells at 10 uM after 48 hrs; format: functional; conditions: HL-60, 48 h, read-out: GI
# NCI-H226 = assay: Growth inhibition of human NCI-H226 cells at 10 uM after 48 hrs; format: functional; conditions: NCI-H226, 48 h, read-out: GI
# [15] = Growth inhibition of human HCT116 cells at 10 uM after 48 hrs; format: functional; conditions: HCT-116, 48 h, read-out: GI
# Staphylococcus aureus [16] = assay: Antimicrobial activity against Staphylococcus aureus assessed as inhibition zone at 200 ug/disk after 24 hrs by disc-diffusion method; format: functional
# MDA-MB-435 = assay: Growth inhibition of human MDA-MB-435 cells at 10 uM after 48 hrs; format: functional; conditions: MDA-MB-435, 48 h, read-out: GI
# [17] = Growth inhibition of human HCC2998 cells at 10 uM after 48 hrs; format: functional; conditions: HCC 2998, 48 h, read-out: GI
# MDA-MB-468 = assay: Growth inhibition of human MDA-MB-468 cells at 10 uM after 48 hrs; format: functional; conditions: MDA-MB-468, 48 h, read-out: GI
# [18] = Growth inhibition of human RXF393 cells at 10 uM after 48 hrs; format: functional; conditions: RXF 393, 48 h, read-out: GI
# NCI-H23 = assay: Growth inhibition of human NCI-H23 cells at 10 uM after 48 hrs; format: functional; conditions: NCI-H23, 48 h, read-out: GI
# K562 = assay: Growth inhibition of human K562 cells at 10 uM after 48 hrs; format: functional; conditions: K562, 48 h, read-out: GI
# [19] = Growth inhibition of human LOXIMVI cells at 10 uM after 48 hrs; format: functional; conditions: LOX IMVI, read-out: GI
# [20] = Growth inhibition of human OVCAR4 cells at 10 uM after 48 hrs; format: functional; conditions: OVCAR-4, 48 h, read-out: GI
# A498 = assay: Growth inhibition of human A498 cells at 10 uM after 48 hrs; format: functional; conditions: A498, 48 h, read-out: GI
# [21] = Growth inhibition of human Hs 578T cells at 10 uM after 48 hrs; format: functional; conditions: read-out: GI
# MCF7 = assay: Growth inhibition of human MCF7 cells at 10 uM after 48 hrs; format: functional; conditions: MCF7, 48 h, read-out: GI
# SW-620 = assay: Growth inhibition of human SW620 cells at 10 uM after 48 hrs; format: functional; conditions: SW-620, 48 h, read-out: GI
# Escherichia coli [22] = assay: Antimicrobial activity against Escherichia coli assessed as inhibition zone at 200 ug/disk after 24 hrs by disc-diffusion method; format: functional
# [23] = Growth inhibition of human PC3 cells at 10 uM after 48 hrs; format: functional; conditions: PC-3, 48 h, read-out: GI
# SK-MEL-5 = assay: Growth inhibition of human SK-MEL-5 cells at 10 uM after 48 hrs; format: functional; conditions: SK-MEL-5, 48 h, read-out: GI
# [24] = Growth inhibition of human OVCAR5 cells at 10 uM after 48 hrs; format: functional; conditions: OVCAR-5, 48 h, read-out: GI
# TK-10 = assay: Growth inhibition of human TK10 cells at 10 uM after 48 hrs; format: functional; conditions: TK-10, 48 h, read-out: GI
# CAKI-1 = assay: Growth inhibition of human CAKI-1 cells at 10 uM after 48 hrs; format: functional; conditions: CAKI-1, 48 h, read-out: GI
# Candida albicans [25] = assay: Antimicrobial activity against Candida albicans assessed as inhibition of visible growth after 24 hrs by disc-diffusion method; format: functional, organism-based
# Pseudomonas aeruginosa [26] = assay: Antimicrobial activity against Pseudomonas aeruginosa assessed as inhibition of visible growth after 24 hrs by disc-diffusion method; format: functional, organism-based
# Bacillus subtilis [27] = assay: Antimicrobial activity against Bacillus subtilis assessed as inhibition of visible growth after 24 hrs by disc-diffusion method; format: functional, organism-based
# Escherichia coli [28] = assay: Antimicrobial activity against Escherichia coli assessed as inhibition of visible growth after 24 hrs by disc-diffusion method; format: functional, organism-based
# Staphylococcus aureus [29] = assay: Antimicrobial activity against Staphylococcus aureus assessed as inhibition of visible growth after 24 hrs by disc-diffusion method; format: functional, organism-based
molecule,measurement,setting,value
Cc1nc(N)sc1Sc1nc2ccc(Cl)cc2c(=O)n1-c1ccc(Oc2ccccc2)cc1,inhibition of growth at 10 µM,ACHN,21.5%
same,zone of inhibition at 200 µg/disc,Candida albicans [1]; read-out: IZ,8 mm
same,inhibition of growth at 10 µM,MDA-MB-231,10.7%
same,inhibition of growth at 10 µM,[2],36.8%
same,inhibition of growth at 10 µM,NCI-H522,14.7%
same,IC50,Dihydrofolate reductase,1 µM
same,inhibition of growth at 10 µM,SNB-19,30.7%
same,inhibition of growth at 10 µM,CCRF-CEM,58.5%
same,inhibition of growth at 10 µM,[3],25.6%
same,inhibition of growth at 10 µM,A549,29.8%
same,inhibition of growth at 10 µM,[4],24.3%
same,inhibition of growth at 10 µM,[5],36.1%
same,inhibition of growth at 10 µM,[6],44.6%
same,inhibition of growth at 10 µM,M14,23.4%
same,inhibition of growth at 10 µM,[7],32%
same,zone of inhibition at 200 µg/disc,Bacillus subtilis [8]; read-out: IZ,8 mm
same,inhibition of growth at 10 µM,[9],24.9%
same,inhibition of growth at 10 µM,[10],30.1%
same,inhibition of growth at 10 µM,HT-29,44.1%
same,inhibition of growth at 10 µM,[11],32.2%
same,inhibition of growth at 10 µM,KM12,20.2%
same,inhibition of growth at 10 µM,[12],55.7%
same,zone of inhibition at 200 µg/disc,Pseudomonas aeruginosa [13]; read-out: IZ,8 mm
same,inhibition of growth at 10 µM,[14],38.3%
same,inhibition of growth at 10 µM,NCI-H460,18%
same,inhibition of growth at 10 µM,786-0,31.5%
same,inhibition of growth at 10 µM,SN12C,26.1%
same,inhibition of growth at 10 µM,T47D,24.5%
same,inhibition of growth at 10 µM,U-251,22.8%
same,inhibition of growth at 10 µM,HL-60(TB),40.6%
same,inhibition of growth at 10 µM,NCI-H226,13.6%
same,inhibition of growth at 10 µM,[15],66.7%
same,zone of inhibition at 200 µg/disc,Staphylococcus aureus [16]; read-out: IZ,8 mm
same,inhibition of growth at 10 µM,MDA-MB-435,11.9%
same,inhibition of growth at 10 µM,[17],26%
same,inhibition of growth at 10 µM,MDA-MB-468,23.4%
same,inhibition of growth at 10 µM,[18],13.4%
same,inhibition of growth at 10 µM,NCI-H23,26%
same,inhibition of growth at 10 µM,K562,25.7%
same,inhibition of growth at 10 µM,[19],24.5%
same,inhibition of growth at 10 µM,[20],59.1%
same,inhibition of growth at 10 µM,A498,60.2%
same,inhibition of growth at 10 µM,[21],18.1%
same,inhibition of growth at 10 µM,MCF7,12.6%
same,inhibition of growth at 10 µM,SW-620,33.9%
same,zone of inhibition at 200 µg/disc,Escherichia coli [22]; read-out: IZ,8 mm
same,inhibition of growth at 10 µM,[23],51.1%
same,inhibition of growth at 10 µM,SK-MEL-5,23.9%
same,inhibition of growth at 10 µM,[24],12.1%
same,inhibition of growth at 10 µM,TK-10,11.1%
same,inhibition of growth at 10 µM,CAKI-1,26.5%
GENTAMICIN,inhibition zone (IZ),Candida albicans [1],19 mm
same,inhibition zone (IZ),Bacillus subtilis [8],25 mm
same,inhibition zone (IZ),Pseudomonas aeruginosa [13],21 mm
same,Activity,Candida albicans [25],Active
same,inhibition zone (IZ),Staphylococcus aureus [16],27 mm
same,Activity,Pseudomonas aeruginosa [26],Active
same,Activity,Bacillus subtilis [27],Active
same,Activity,Escherichia coli [28],Active
same,Activity,Staphylococcus aureus [29],Active
same,inhibition zone (IZ),Escherichia coli [22],18 mm
